Values joined by “and” are separate entries in the source; they are usually repeats but may differ in a detail not shown here. Equal entries are not always repeated. Marks after values point to notes of the source that are not given here. Square brackets hold non-standard residues; d marks the D form. Peptide text beside a SMILES is read from it. ξ: configuration not given here. Aoe(9ξ) = N[C@@H](CCCCCC(=O)C1CO1)C(=O)O; dPip = O=C(O)[C@H]1CCCCN1
Tested on: H1299 cells
Test: Microarray expression profiling of TPX- vs DMSO-treated H1299 cells (Affymetrix HU6800 and Incyte UniGem V arrays)
Type: cell-based, human
Conditions: 30 nM vs DMSO
Description: Cell Culture and Drug Treatments. […] H1299 cells at 60 to 80% confluence are treated with 30 nM TPX dissolved in dimethyl sulphoxide for a final concentration of 0.1% Me2SO in cell culture medium or 0.1% Me2SO for 0, 6, 12, and 18 h.
Incyte cDNA arrays. H1299 cells are treated with 30 nM TPX dissolved in Me2SO or Me2SO for 0, 6, 12 and 18 h. Final Me2SO concentrations were 0.1% in cell culture medium. Total RNA is extracted using TRIZOL reagent (Life Technologies, Rockville, Md.) and purified using RNAeasy reagents (Qiagen, Valencia Calif.). Poly (A)^+ RNA (mRNA) is prepared from total RNA using Oligotex columns (Qiagen, Valencia, Calif.) and the procedure is repeated twice to minimize contamination with ribosomal RNA. The mRNA concentrations are determined using RiboGreen RNA Quantitation kit (Molecular Probes, Eugene, Oreg.) and equal amounts of mRNA from each sample is used in labeling reactions that are performed by Synteni Division of Incyte Genomics, Inc. (Palo Alto, Calif.). Complementary DNAs are prepared by […] and labeled with Cy3-deoxyuridine triphosphate (Cy3) or Cy5-deoxyuridine triphosphate (Cy5) fluorescent nucleotides. cDNA samples from cells that are treated with Me2SO are labeled with Cy3 and the TPX-treated samples are labeled with Cy5. Replicates were labeled with reversed fluorescent labels to accommodate biases attributable to labeling. The Cy3 and Cy5 samples from each time point are combined and hybridized to UniGem […] arrays (Iyer, V. R., et al., (1999) Science 283, 83-87). This array contains cDNAs that represent approximately 7000 human genes.
Affymetrix oligonucleotide arrays. Total RNA and Poly (A)^+ RNA is isolated from TPX or Me2SO-treated H1299 cells essentially as it was for Incyte cDNA arrays. Total RNA is isolated from p21^waf1-10 cells that are grown in the presence or in the absence of tetracycline for 6, 12 and 48 h. 1st strand cDNA synthesis is performed using Superscript Choice System (Life Technologies) and a T7prFB-t30 primer, 5′-AAACGACGGCACA […]-t30-3′ (SEQ ID NO 1). Biotinylated complementary […] is made using the T7 Megascript system (Ambion, Austin, Tex.), substituting NTP labeling-mix containing biotinylated CTP and UTP. The labeled, purified cDNA is fragmented into <50 bp pieces at 95° C. in MgCl2 buffer to-increase the efficiency of hybridization to 20-mer oligos on the arrays. These labeled fragments are hybridized to HU6800 arrays (Affymetrix, Santa Clara, Calif.) as described previously (Lockhart, D. J., et al., (1996) Nat. Biotechnol. 14, 1675-1680; Alon, U. et al., (1999) Proc. Natl. Acad. Sci. U.S.A. 96, 6745-6750). This array represents approximately 7000 human genes. Briefly, samples are hybridized for 16 h at 45° C. with constant rotation at 60 rpm. The arrays are washed and stained using an Affymetrix fluidics station. The stain included streptavidin-phycoerythrin (10 μg/ml; Molecular Probes, Eugene, Oreg.) and biotinylated goat anti-streptavidin (3 μg/ml; Vector Laboratories, Burlingame, Calif.).
Imaging and Data Analysis. Affymetrix arrays are scanned with a HP argon-ion laser confocal microscope, with a 488 nm […] and detection at 570 nm. Affymetrix fold changes are calculated using GeneChip 3.3 software (Affymetrix). Incyte Pharmaceutical Inc. uses a laser confocal microscope to determine the fluorescence intensities from Incyte cDNA arrays. The fluorescent images (Cy3 and Cy5) from the Incyte cDNA arrays are normalized to total fluorescence from each channel for all genes for labeling efficiency differences and considered the normalized data is used for calculation of the gene expression ratios.

## O=C(CCCCC[C@@H]1NC(=O)[C@H]2CCCCN2C(=O)[C@H](Cc2ccccc2)NC(=O)[C@H](Cc2ccccc2)NC1=O)C1CO1 (stereo partly drawn) [TPX, Trapoxin A] (cyclo(FF[dPip][Aoe(9ξ)]))
6 h
  Fold change, AB011146 KIAA0574, similar to an RNA binding protein: NC (<2 fold change in expression level (NC))
  Fold change, AF012086 RAN-binding protein 2-like: NC (<2 fold change in expression level (NC))
  Fold change, AF052578 RAN [RNA processing]: NC (<2 fold change in expression level (NC))
  Fold change, AF052578 RAN [Small GTP-ases]: NC (<2 fold change in expression level (NC))
  Fold change, AF109161 p35srj [Stress]: NC (<2 fold change in expression level (NC))
  Fold change, AF109161 p35srj [Transformation and TKRs]: NC (<2 fold change in expression level (NC))
  Fold change, AL047358 Insulin-induced gene 1: 2.2 fold and 2.8 fold
  Fold change, AL047358 Spermidine/spermine N1-acetyltransferase: NC (<2 fold change in expression level (NC))
  Fold change, AL720570 Hepatoma-derived growth factor: NC (<2 fold change in expression level (NC))
  Fold change, D00596 Thymidylate synthetase: NC (<2 fold change in expression level (NC))
  Fold change, D16105 Leukocyte receptor tyrosine kinase: NC (<2 fold change in expression level (NC))
  Fold change, D50920 KIAA0130, thyroid receptor interacting protein: NC (<2 fold change in expression level (NC))
  Fold change, D85429 Hsp 40: 4.0^8 fold and 3.9^8 fold
  Fold change, J03909 γ-IFN-inducible, IP-30: 3.9^5 fold and 3.9^2 fold
  Fold change, L03840 Fibroblast growth factor receptor: 2.4* fold and 2.7* fold
  Fold change, L16991 Thymidylate kinase: NC (<2 fold change in expression level (NC))
  Fold change, L20010 Host cell factor: NC (<2 fold change in expression level (NC))
  Fold change, L32976 Mixed lineage kinase-3: NC (<2 fold change in expression level (NC))
  Fold change, M12174 RhoB: 6.2^5 fold and 9.0^8 fold
  Fold change, M55153 Transglutaminase 2: NC (<2 fold change in expression level (NC))
  Fold change, M58286 TNF Receptor: NC (<2 fold change in expression level (NC))
  Fold change, M59828 Hsp 70: 3.5 fold and 4.1 fold
  Fold change, M76125 Tyrosine kinase receptor (TKR) axl: NC (<2 fold change in expression level (NC))
  Fold change, M80244 Human E16: NC (<2 fold change in expression level (NC))
  Fold change, M80899 AHNAK nucleoprotein/desmoykin: NC (<2 fold change in expression level (NC))
  Fold change, M86406 Actinin: NC (<2 fold change in expression level (NC))
  Fold change, N33982 c-Yes-associated protein: NC (<2 fold change in expression level (NC))
  Fold change, NM006603 Stromal antigen 2: NC (<2 fold change in expression level (NC))
  Fold change, U03057 Actin-bundling protein: NC (<2 fold change in expression level (NC))
  Fold change, U09578 MAKAP kinase (3 pk): NC (<2 fold change in expression level (NC))
  Fold change, U09579 p21waf1 (1st line): 6.1* fold and 6.6* fold
  Fold change, U09579 p21waf1 (2nd line): 2.3 fold and 3.3 fold
  Fold change, U09937 Upa receptor (UpaR) (1st line): NC (<2 fold change in expression level (NC))
  Fold change, U14750 Connective tissue growth factor: 3.1 fold and 3.6 fold
  Fold change, U15782 Cleavage stimulation factor 3: NC (<2 fold change in expression level (NC))
  Fold change, U25804 Caspase-4: NC (<2 fold change in expression level (NC))
  Fold change, U28749 HMGI-C (2nd line): NC (<2 fold change in expression level (NC))
  Fold change, U28749 High mobility group phosphoprotein I-C (HMGI-C) (1st line): NC (<2 fold change in expression level (NC))
  Fold change, U32519 GAP SH3 binding protein: 5.7^8 fold and 5.8^8 fold
  Fold change, U35113 Metastasis-associated 1, MTA-1 [Metastasis and invasion]: NC (<2 fold change in expression level (NC))
  Fold change, U35113 Metastasis-associated protein 1 (MTA-1) [Chromatin remodeling]: NC (<2 fold change in expression level (NC))
  Fold change, U48795 Cathelicidin antimicrobial peptide: NC (<2 fold change in expression level (NC))
  Fold change, U56833 VBP-1: NC (<2 fold change in expression level (NC))
  Fold change, U77413 O-linked-N-acetylglucosamine transferase: NC (<2 fold change in expression level (NC))
  Fold change, U84214 Defender against cell death 1: NC (<2 fold change in expression level (NC))
  Fold change, X03473 Histone H1 (0) [Chromatin remodeling]: 6.8^4 fold and 10.8^8 fold
  Fold change, X03473 Histone H1 (0) [Differentiation]: 6.8^4 fold and 10.8^8 fold
  Fold change, X04429 Plasminogen activator inhibitor 1: NC (<2 fold change in expression level (NC))
  Fold change, X16396 NAD-dependent methylene teterahydrofolate dehydrogenase-methylenyltetrahydrofolate cyclohydrolase: NC (<2 fold change in expression level (NC))
  Fold change, X16665 Homeobox B2 (Hoxb2): NC (<2 fold change in expression level (NC))
  Fold change, X37546 Inhibitor of apoptisis homolog B: NC (<2 fold change in expression level (NC))
  Fold change, X53586 Integrin α-6: NC (<2 fold change in expression level (NC))
  Fold change, X55740 5′-nucleotidase: NC (<2 fold change in expression level (NC))
  Fold change, X59798 Cyclin D1: NC (<2 fold change in expression level (NC))
  Fold change, X66029 TKR axl: NC (<2 fold change in expression level (NC))
  Fold change, X71874 MECL-1: NC (<2 fold change in expression level (NC))
  Fold change, X78687 G9 sialidase: 3.0^8 fold and 3.4^8 fold
  Fold change, X89713 Death-associated protein-5: NC (<2 fold change in expression level (NC))
12 h
  Fold change, A1581499 Apoptosis inhibitor 2: NC (<2 fold change in expression level (NC))
  Fold change, AB011146 KIAA0574, similar to an RNA binding protein: 2.7 fold
  Fold change, AF012086 RAN-binding protein 2-like: 9.1 fold and 8.3 fold
  Fold change, AF052578 RAN [RNA processing]: NC (<2 fold change in expression level (NC))
  Fold change, AF052578 RAN [Small GTP-ases]: 2.9 fold and 2.0 fold
  Fold change, AF109161 p35srj [Stress]: 3.5 fold and 2.4 fold
  Fold change, AF109161 p35srj [Transformation and TKRs]: 3.5 fold and 2.4 fold
  Fold change, AL047358 Insulin-induced gene 1: 7.9 fold and 6.4 fold
  Fold change, AL047358 Spermidine/spermine N1-acetyltransferase: 3.8 fold and 2.3 fold
  Fold change, AL720570 Hepatoma-derived growth factor: NC (<2 fold change in expression level (NC))
  Fold change, AW072424 5′-nucleotidase: −3.7 fold
  Fold change, D00596 Thymidylate synthetase: NC (<2 fold change in expression level (NC))
  Fold change, D16105 Leukocyte receptor tyrosine kinase: NC (<2 fold change in expression level (NC))
  Fold change, D50920 KIAA0130, thyroid receptor interacting protein: NC (<2 fold change in expression level (NC))
